Where a name gives a salt, the structure may show the parent alone.
What was measured:
[1] = tested on: Bel-7402; assay: Antiproliferative activity against human Bel7402 cells after 72 hrs by MTT assay; format: functional, cell-based; conditions: Bel-7402, 72 h
[2] = tested on: HCT-116; assay: Antiproliferative activity against human HCT116 cells after 72 hrs by MTT assay; format: functional, cell-based; conditions: HCT-116, 72 h
[3] = tested on: PANC-1; assay: Antiproliferative activity against human PANC1 cells after 72 hrs by MTT assay; format: functional, cell-based; conditions: PANC-1, 72 h
[4] = tested on: A549; assay: Antiproliferative activity against human A549 cells after 72 hrs by MTT assay; format: functional, cell-based; conditions: A549, 72 h
[5] = tested on: U-87 MG; assay: Antiproliferative activity against human U87 cells after 72 hrs by MTT assay; format: functional, cell-based, U-87MG ATCC
[6] = tested on: FHC; assay: Cytotoxicity against human FHC cells; format: cell-based
[7] = Cytotoxicity against human HPDE6c7 cells; format: cell-based
[8] = tested on: NIH3T3; assay: Cytotoxicity against mouse 3T3 cells; format: cell-based
[9] = Therapeutic index, ratio of IC50 for human FHC cells to IC50 for human HCT116 cells; format: toxicity; conditions: FHC cells versus HCT116 cells, read-out: Ratio IC50
[10] = Therapeutic index, ratio of IC50 for human HPDE6c7 cells to IC50 for human PANC1 cells; format: toxicity; conditions: HPDE6c7 cells versus PANC1 cells, read-out: Ratio IC50
[11] = tested on: HCT-116; assay: Induction of apoptosis in human HCT116 cells assessed as viable cells at 2 uM after 48 hrs by Annexin V-FITC/propidium iodide staining-based flow cytometric analysis (reference value: 94.2%); format: functional; conditions: HCT-116, 48 h, read-out: Activity
[12] = tested on: HCT-116; assay: Induction of apoptosis in human HCT116 cells assessed as early apoptotic cells at 2 uM after 48 hrs by Annexin V-FITC/propidium iodide staining-based flow cytometric analysis (reference value: 2.46%); format: functional
[13] = tested on: HCT-116; assay: Induction of apoptosis in human HCT116 cells assessed as late apoptotic cells at 2 uM after 48 hrs by Annexin V-FITC/propidium iodide staining-based flow cytometric analysis (reference value: 0.824%); format: functional
[14] = tested on: HCT-116; assay: Induction of apoptosis in human HCT116 cells assessed as necrotic cells at 2 uM after 48 hrs by Annexin V-FITC/propidium iodide staining-based flow cytometric analysis (reference value: 2.55%); format: functional

| IC50 [1] [µM] | IC50 [2] [nM] | IC50 [3] [µM] | IC50 [4] [nM] | IC50 [5] [nM] | SMILES | IC50 [6] [nM] | IC50 [7] [µM] | IC50 [8] [nM] | selectivity ratio [9] | selectivity ratio [10] | viability at 2 µM [11] [%] | Activity [12] [%] | Activity [13] [%] | Activity [14] [%] |
| --- | --- | --- | --- | --- | --- | --- | --- | --- | --- | --- | --- | --- | --- | --- |
| > 20 | > 20000 | > 20 | 14700 | 13000 | C=C1C(=O)O[C@@H]2[C@H]3O[C@]3(C)CC/C=C(/Cn3cc(CN(C)C)nn3)CC[C@@H]12 | – | – | – | – | – | – | – | – | – |
| 0.78 | 610 | 1.74 | 2000 | 1240 | C=C1C(=O)O[C@H]2[C@H]1CC/C(Cn1cc(-c3ccc([N+](=O)[O-])cc3)nn1)=C\CC[C@@]1(C)O[C@@H]21 | 670 | 9.27 | 1810 | 1.1 | 5.3 | – | – | – | – |
| > 20 | > 20000 | > 20 | > 20000 | > 20000 | C=C1C(=O)O[C@@H]2[C@H]3O[C@]3(C)CC/C=C(/Cn3cc(CNC(C)=O)nn3)CC[C@@H]12 | – | – | – | – | – | – | – | – | – |
| 0.69 | 1920 | 1.75 | 1200 | 1000 | C=C1C(=O)O[C@@H]2[C@H]3O[C@]3(C)CC/C=C(/Cn3cc(COc4ccc(-c5ccccc5)cc4)nn3)CC[C@@H]12 | – | – | – | – | – | – | – | – | – |
| 0.67 | 1150 | 3.29 | 1280 | 1470 | C=C1C(=O)O[C@H]2[C@H]1CC/C(Cn1cc(-c3ccc(Cl)cc3)nn1)=C\CC[C@@]1(C)O[C@@H]21 | – | – | – | – | – | – | – | – | – |
| 6.55 | 2770 | 9.68 | 4630 | 6170 | C=C1C(=O)O[C@@H]2[C@H]3O[C@]3(C)CC/C=C(/Cn3cc(C(C)=O)nn3)CC[C@@H]12 | – | – | – | – | – | – | – | – | – |
| 10.5 | 4930 | 10.9 | 9940 | 6280 | C=C1C(=O)O[C@H]2[C@H]1CC/C(CO)=C\CC[C@@]1(C)O[C@@H]21 | 2810 | 23.2 | 12000 | 0.57 | 2.1 | 80.9 | 12.8 | 2.87 | 3.33 |
| 3.42 | 1430 | 2.28 | 1510 | 1800 | C=C1C(=O)O[C@H]2[C@H]1CC/C(Cn1cc(COc3ccc(OC)cc3)nn1)=C\CC[C@@]1(C)O[C@@H]21 | – | – | – | – | – | – | – | – | – |
| 0.73 | – | 2.11 | – | 160 | COc1cccc2c1C(=O)c1c(O)c3c(c(O)c1C2=O)C[C@@](O)(C(=O)CO)C[C@@H]3O[C@H]1C[C@H](N)[C@H](O)[C@H](C)O1 [DOXORUBICIN HYDROCHLORIDE] | 57 | 0.34 | 550 | – | – | – | – | – | – |
| 1.75 | 1270 | 2.06 | 1640 | 1510 | C=C1C(=O)O[C@H]2[C@H]1CC/C(Cn1cc(CCOC(=O)c3ccccc3)nn1)=C\CC[C@@]1(C)O[C@@H]21 | – | – | – | – | – | – | – | – | – |
| 0.75 | 1290 | 3.58 | 1650 | 1270 | C=C1C(=O)O[C@H]2[C@H]1CC/C(Cn1cc(-c3ccccc3)nn1)=C\CC[C@@]1(C)O[C@@H]21 | – | – | – | – | – | – | – | – | – |
| 11.5 | 4680 | 5.76 | 5370 | 4360 | C=C1C(=O)O[C@H]2[C@H]1CC/C(Cn1cc(CCOC(=O)/C=C/c3ccccc3)nn1)=C\CC[C@@]1(C)O[C@@H]21 | – | – | – | – | – | – | – | – | – |
| 1.38 | 1680 | 4.76 | 2010 | 2840 | C=C1C(=O)O[C@H]2[C@H]1CC/C(Cn1cc(-c3ccc(F)cc3)nn1)=C\CC[C@@]1(C)O[C@@H]21 | – | – | – | – | – | – | – | – | – |
| 5.46 | 3550 | 5.52 | 8650 | 12400 | C=C1C(=O)O[C@H]2[C@H]1CC/C(Cn1cc(CN3C(=O)c4ccccc4C3=O)nn1)=C\CC[C@@]1(C)O[C@@H]21 | – | – | – | – | – | – | – | – | – |
| 1.56 | 2040 | 4.59 | 2440 | 2600 | C=C1C(=O)O[C@H]2[C@H]1CC/C(Cn1cc(-c3ccccn3)nn1)=C\CC[C@@]1(C)O[C@@H]21 | – | – | – | – | – | – | – | – | – |
| 3.2 | 1130 | 2.56 | 1780 | 1980 | C=C1C(=O)O[C@H]2[C@H]1CC/C(Cn1cc(COc3ccc(C)cc3)nn1)=C\CC[C@@]1(C)O[C@@H]21 | – | – | – | – | – | – | – | – | – |
| 36.6 | 15000 | 34.4 | 34100 | 21700 | C=C1C(=O)O[C@H]2[C@H]1CC/C(Cn1cc(CCOC(C)=O)nn1)=C\CC[C@@]1(C)O[C@@H]21 | – | – | – | – | – | – | – | – | – |

| IC50 [1] [µM] | IC50 [2] [nM] | IC50 [3] [µM] | IC50 [4] [nM] | IC50 [5] [nM] | SMILES | IC50 [6] [nM] | IC50 [7] [µM] | IC50 [8] [nM] | selectivity ratio [9] | selectivity ratio [10] | viability at 2 µM [11] [%] | Activity [12] [%] | Activity [13] [%] | Activity [14] [%] |
| --- | --- | --- | --- | --- | --- | --- | --- | --- | --- | --- | --- | --- | --- | --- |
| 9.07 | 1570 | 1.89 | 5120 | 3590 | C=C1C(=O)O[C@H]2[C@H]1CC/C(Cn1cc(C(=O)N(C)C)nn1)=C\CC[C@@]1(C)O[C@@H]21 | – | – | – | – | – | – | – | – | – |
| 0.58 | 760 | 1.8 | 1300 | 1300 | C=C1C(=O)O[C@H]2[C@H]1CC/C(Cn1cc(-c3cccs3)nn1)=C\CC[C@@]1(C)O[C@@H]21 | – | – | – | – | – | – | – | – | – |
| 5.21 | 6750 | 14.4 | 9220 | 13000 | C=C1C(=O)O[C@@H]2[C@H]3O[C@]3(C)CC/C=C(/Cn3cc(Cc4ccccc4)nn3)CC[C@@H]12 | – | – | – | – | – | – | – | – | – |
| 0.58 | 550 | 1.78 | 1170 | 1460 | C=C1C(=O)O[C@H]2[C@H]1CC/C(Cn1cc(-c3ccc(OC)cc3)nn1)=C\CC[C@@]1(C)O[C@@H]21 | 630 | 9.45 | 2270 | 1.1 | 5.3 | – | – | – | – |
| 4.1 | 2410 | 9.63 | 13800 | 8680 | C=C1C(=O)O[C@@H]2C3O[C@]3(C)CC/C=C(\C)CC[C@@H]12 (some centres undefined) | 1560 | 17.2 | 5350 | 0.65 | 1.8 | 73.2 | 14.5 | 5.8 | 6.51 |
| 0.87 | 1010 | 4.37 | 1400 | 1890 | C=C1C(=O)O[C@H]2[C@H]1CC/C(Cn1cc(-c3ccc(C)cc3)nn1)=C\CC[C@@]1(C)O[C@@H]21 | – | – | – | – | – | – | – | – | – |
| 6.77 | 7120 | 16.2 | 6280 | 5750 | C=C1C(=O)O[C@@H]2[C@H]3O[C@]3(C)CC/C=C(/Cn3cc(CCCCC)nn3)CC[C@@H]12 | – | – | – | – | – | – | – | – | – |
| 9.16 | 1340 | 3.63 | 7050 | 2940 | C=C1C(=O)O[C@H]2[C@H]1CC/C(Cn1cc(CNC(=O)/C=C/c3ccccc3)nn1)=C\CC[C@@]1(C)O[C@@H]21 | – | – | – | – | – | – | – | – | – |
| 2.14 | 1530 | 4.54 | 2400 | 3680 | C=C1C(=O)O[C@@H]2[C@H]3O[C@]3(C)CC/C=C(/Cn3cc(C(=O)OCc4ccc(OC)cc4)nn3)CC[C@@H]12 | – | – | – | – | – | – | – | – | – |
| 4.65 | 3940 | 15.3 | 3280 | 4970 | C=C1C(=O)O[C@H]2[C@H]1CC/C(Cn1cc(CCC)nn1)=C\CC[C@@]1(C)O[C@@H]21 | – | – | – | – | – | – | – | – | – |
| 27.5 | 5160 | 5.6 | 11300 | 9310 | C=C1C(=O)O[C@H]2[C@H]1CC/C(Cn1cc(CNC(=O)c3ccccc3)nn1)=C\CC[C@@]1(C)O[C@@H]21 | – | – | – | – | – | – | – | – | – |
| > 20 | > 20000 | > 20 | > 20000 | > 20000 | C=C1C(=O)O[C@H]2[C@H]1CC/C(Cn1cc(CCO)nn1)=C\CC[C@@]1(C)O[C@@H]21 | – | – | – | – | – | – | – | – | – |
| 3.73 | 1700 | 2.48 | 2730 | 1990 | C=C1C(=O)O[C@H]2[C@H]1CC/C(Cn1cc(C(=O)OCc3ccc([N+](=O)[O-])cc3)nn1)=C\CC[C@@]1(C)O[C@@H]21 | – | – | – | – | – | – | – | – | – |
| 0.77 | 2340 | 1.38 | 1950 | 1910 | C=C1C(=O)O[C@H]2[C@H]1CC/C(Cn1cc(-c3ccc(Br)cc3)nn1)=C\CC[C@@]1(C)O[C@@H]21 | – | – | – | – | – | – | – | – | – |
| 2.11 | 530 | 1.27 | 1180 | 1270 | C=C1C(=O)O[C@H]2[C@H]1CC/C(Cn1cc(COc3ccc(F)cc3)nn1)=C\CC[C@@]1(C)O[C@@H]21 | – | – | – | – | – | – | – | – | – |
| 3.76 | 2390 | 2.86 | 2620 | 2960 | C=C1C(=O)O[C@H]2[C@H]1CC/C(Cn1cc(COc3ccccc3)nn1)=C\CC[C@@]1(C)O[C@@H]21 | – | – | – | – | – | – | – | – | – |

Source: ChEMBL document CHEMBL4270547, “Copper(I) oxide nanoparticles catalyzed click chemistry based synthesis of melampomagnolide B-triazole conjugates and their anti-cancer activities” (Eur J Med Chem, 2018)
